Laboratory results as given in patent EP0289229A1, “Antiviral combinations” (THE WELLCOME FOUNDATION LIMITED, priority 1987, dated 1988).

Assays:
[1] = tested on: herpes simplex type 1 (KOS strain); experiment: Plaque reduction assay in Vero cells; assay type: cell-based; settings: HSV-1 KOS, three days
Method: Antiviral activity was determined using a plaque reduction assay. Petri plates were seeded with Vero cells which were then allowed to grow to confluency. Each plate was then infected with a fixed number of plaque forming units (abut 100-500) of herpes simplex type 1 (KOS strain). The inhibitors, either alone or in the indicated combinations, were dissolved to give the indicated concentration in minimal essential medium containing 2% heat inactivated fetal calf serum and 0.5% human immune serum globulin: One hour after infection the solutions (10 ml per plate) were added to the cultures. Three days later the cultures were formalin-fixed and stained with crystal violet, and the plaques were counted.

[2] = tested on: Friend Leukemia Virus (FLV); experiment: Anti-Friend Leukemia Virus plaque inhibition in FG-10 cells; assay type: cell-based; settings: FG-10 cells infected with FLV; compound added one hour after infecting; 3 + 3 days incubation; read-out: IC50 (concentration giving 50% inhibition of plaques)
Method: The enhancement of the Anti-Friend Leukemia Virus (FLV) activity of zidovudine by bacterial thymidine phosphorylase is shown in Table 1. FG-10 cells were used seeded on a plate one day before they were infected with FLV. One hour after infecting, known concentrations of the test compound or combination were added. The plates were incubated for 3 days, the media replaced with fresh McCoy's 5A media and incubated another 3 days.

| SMILES | Average Plaque Count ([1]; Conc. 0.1 μM) | Average Plaque Count ([1]; Conc. 0.25 μM) | Average Plaque Count ([1]; Conc. 0.5 μM) | Average Plaque Count ([1]; Conc. 1.0 μM) | Average Plaque Count ([1]; Conc. 2.5 μM) | Average Plaque Count ([1]; Conc. 5.0 μM) | Average Plaque Count ([1]; Conc. 7.5 μM) | Average Plaque Count ([1]; Conc. 10 μM) | inhibition at 0.1 µM ([1]; Human alphaherpesvirus 1, 72 h, Conc. 0.1 μM) [%] | inhibition at 0.25 µM ([1]; Human alphaherpesvirus 1, 72 h, Conc. 0.25 μM) [%] | inhibition at 0.5 µM ([1]; Human alphaherpesvirus 1, 72 h, Conc. 0.5 μM) [%] | inhibition at 1 µM ([1]; Human alphaherpesvirus 1, 72 h, Conc. 1.0 μM) [%] | inhibition at 2.5 µM ([1]; Human alphaherpesvirus 1, 72 h, Conc. 2.5 μM) [%] | inhibition at 5 µM ([1]; Human alphaherpesvirus 1, 72 h, Conc. 5.0 μM) [%] | inhibition at 7.5 µM ([1]; Human alphaherpesvirus 1, 72 h, Conc. 7.5 μM) [%] | inhibition at 10 µM ([1]; Human alphaherpesvirus 1, 72 h, Conc. 10 μM) [%] | IC50 [2] [nM] |
| --- | --- | --- | --- | --- | --- | --- | --- | --- | --- | --- | --- | --- | --- | --- | --- | --- | --- |
| Nc1nc2c(ncn2COCCO)c(=O)[nH]1 [Acyclovir, 9-[(2-hydroxyethoxy)methyl]guanine] | 316.5 | 298 | 290.5 | 230 | 182 | 88 | 54 | 34.5 | 11.6 | 16.7 | 19 | 35.8 | 49.2 | 75.4 | 84.9 | 90.4 |  |
| Cc1cn([C@H]2C[C@H](N=[N+]=[N-])[C@@H](CO)O2)c(=O)[nH]c1=O [Zidovudine, 3′-azido-3′-deoxythymidine] |  |  |  |  |  |  |  |  |  |  |  |  |  |  |  |  | 5 |
